This is an account of results in US7566808B2, “Management of ophthalmologic disorders, including macular degeneration” (President and Fellows of Harvard College, priority 2004, dated 2009).

The experiment has as its system bovine retinal pigment epithelial membrane system (11-cis-retinol formation). Briefly: 11-cis-retinol formation in RPE membranes (IMH activity / RPE65 function). The format is biochemical. The conditions noted are these: 60 μM, data not shown. The method, then:
A control reaction mixture without any inhibitor was also incubated at room temperature for 15 min. At the end of the 15 min incubation, all-trans-retinol [11-12-^3H2] (0.2 μM) was added to the reaction mixtures (100 mM Tris pH 8.0, […] of RPE protein, 0.2% BSA 100 μM of DPPC, 1 mM of DTT and 0.2 μM all-trans-retinol [11-12-^3H2]) and incubated at room temperature for 30 min. At the end of this 30 minutes of incubation, an aliquot of the reactions were quenched to verify the equal addition of all-trans-retinol [11,12-^3H2] and the effect of these inhibitors on LRAT. After this the control reaction mixture was incubated with atRA (60 & 6 μM), 13cRA (60 & 6 μM) or 4-HPR (60 & 6 μM) for 15 min. Now all the reaction mixtures were incubated with 30 μM of apo-rCRALBP (100 mM Tris pH 8.0, 7.7 μg of RPE protein, 0.2% BSA 100 μm of DPPC, 1 mM of DTT 30 μM apo-rCRALBP and 0.2 μM all-trans-retinol [11-12-^3H2]) at 37° C. for 30 minutes. At the end of this incubation period the 200 μL reaction mixture was quenched by the addition of 750 μL ice cold methanol after which 100 μL of 1M sodium chloride solution was added, and 500 μl hexane (containing butylated hydroxy toluene at 1 mg/mL) was added to effect extraction of the retinoids. The retinoids were analyzed as previously described (27). The amount of 11-cis-retinol formed was used as a measurement of IMH activity. All experiments were performed in triplicate and the average values of these measurements were used for analysis.
A control reaction mixture without any inhibitor was also incubated at room temperature for 15 min. At the end of the 15 min incubation, all-trans-retinol [11-12-^3H2] (0.2 μM) was added to the reaction mixtures (100 mM Tris pH 8.0, 76.7 μg of RPE protein, 0.2% BSA 100 μM of DPPC, 1 mM of DTT and 0.2 μM all-trans-retinol [11-12-^3H2]) and incubated at room temperature for 30 min. […] The retinoids were analyzed as previously described (27). […]

Take `CC1=C(/C=C/C(C)=C/C=C/C(C)=C\C(=O)O)C(C)(C)CCC1` [13-cis-retinoic acid, reference compound]: the “inhibition of 11-cis-retinol formation, membranes pre-incubated with vitamin A before inhibitor” value is “not susceptible to inhibition”.
